Our source for the melting point values is a melting point compilation (Tetko et al.; mined from patent text by program, amines drawn as free bases though some values may be those of a salt).

Broadly, the melting point is the temperature, or range, at which the solid turns liquid. In the case of `CN(C(=O)OCc1ccccc1)C1CCN(CC2(C)Cn3cc([N+](=O)[O-])nc3O2)CC1` (stereo not given), the melting point worked out at 139 °C.
The value for `CCCCOc1ccc(-c2ncc(C#N)c(Cl)n2)cc1` was 170 °C; that for `Cc1cccc(NC(=O)NCC(=O)N2[C@@H](C(=O)OC(C)(C)C)C[C@H](C(=O)O)[C@H]2c2ccccc2)c1` (racemic) was 160 °C.
The value for `N#CCc1cc(O)c(O)c(F)c1` was 100 to 101 °C; that for `CCC(=NOCc1ccc(Cl)cc1)c1cc(Cl)ccc1NS(=O)(=O)C(F)(F)F` was 54 to 55 °C.
As to `CC(C)(C)c1cc(CCc2ccccc2NC(=O)NCC(C)(C)c2ccccc2F)cc(C(C)(C)C)c1O`, the melting point lay in the range of 182 to 183 °C.
The value for `COc1ccc(C2(O)CCN(c3ccc(OC)nc3-c3ccc(OC(F)(F)F)cc3)CC2)cc1` was 100 to 112 °C.
The figure for `COCOc1ccc(-c2ccc3c(c2)C=C(C(=O)Nc2ccc(CN(C)C4CCOCC4)cc2)CCS3(=O)=O)cc1` is 227 to 229 °C; for `CC(=O)NCC1CN(c2ccc(N3CCN(c4nc5ccc(F)c(F)c5o4)CC3)c(F)c2)C(=O)O1` (stereo not given) it is 213 to 214 °C; for `CON=C(C#N)c1ccccc1COc1cccc(Cl)c1` it is 62 to 63 °C.
The figure for `OC[C@H]1C[C@@H]2c3ccccc3Oc3ccc(F)cc3[C@H]2N1` is 108 to 109 °C.
For the molecule `CCOC(=O)c1cc(-c2ccc(Cl)cc2)cnc1C`, the melting point came out at 71 °C.
The value for `CC(C)C[C@H]1[C@@H]2C(=O)N(Cc3ccccc3)C(=O)[C@@H]2[C@H](c2ccc(C#N)cc2)N1C` (racemic) was 173 to 174 °C; that for `COc1ccc(CNC(=O)c2cc3c(=O)n(Cc4ccc(C(=O)O)cc4)cnc3cn2)cc1` was 245 to 246 °C; that for `CCC1(C(=O)C(=O)NC(C)(C)C)CC1` was 37.5 to 39 °C.
The figure for `O=C(O)CCCCCCOc1ccc(-c2ccccc2)cc1` is 78 to 79 °C; for `CC(C)(C)C(=O)C(F)n1cncn1` (stereo not given) it is 54 to 55 °C.
In turn, `CCC(CCCCc1ccccc1)(CC(=O)O)S(=O)(=O)c1ccc(OC)cc1` (stereo not given) yielded a melting point of 44 to 46 °C.
The figure for `CCCCC(=Nc1sc(Cl)cc1C(=O)NCCC)OC` is 110 to 112 °C; for `CCC(CC)(c1ccccc1F)c1c[nH]c2c(NS(C)(=O)=O)cccc12` it is 144 to 146 °C.
The value for `CC(=O)Nc1cc([N+](=O)[O-])c(C(=O)O)c([N+](=O)[O-])c1O` was 199 to 203 °C.
`O=C1CCCCCCCCCCC(=O)O1`: the melting point fell in the range of 85 to 89 °C.
The value for `COC(=O)C(Oc1ccc(CCCCCCCl)cc1)c1ccc(Sc2ccc(Cl)cc2)cc1` (stereo not given) was 122 to 124 °C; that for `O=c1[nH]c2ccccc2c(=O)c2cc(Cl)ccc12` was 290 to 295 °C; that for `CCOc1ccc(C=C(CSC(C)=O)C(=O)NCCC(=O)OCc2ccccc2)cc1` was 92 °C.
As for `OCc1cc2cc(Cl)cc(Br)c2o1`, the melting point lay in the range of 123 to 126 °C.
The value for `COc1cc2c(cc1OC)-c1c(-c3nc(C)no3)c(-c3cc(C)c(O)c(C)c3)c(C)n1CC2` was 218 to 221 °C; that for `N#Cc1ccc(Cn2cc(C#N)nn2)cc1` was 93.5 to 94 °C.
The figure for `COC(=O)NC1=NC(c2cccc(C(F)(F)F)c2)CN1` (stereo not given) is 173 to 174 °C; for `CN1CCN(c2ccc(Nc3ncc4ccc(Sc5ccccc5)n4n3)cc2)CC1` it is 155 to 157 °C; for `CCOC(=O)Cc1cc2c(N=C3SC[C@@H]4Cc5ccccc5CN34)cccc2cn1` it is 112 °C.
The value for `O=C1CCC([N+](=O)[O-])C(c2cccc(Cl)c2)N1` (stereo not given) was 131 to 133 °C.
`CN(C)C(=O)N(C)C(=O)Nc1ccc(Cl)cc1` had a melting point of 94.5 to 95 °C.
The value for `O=C(CCn1ccnc1)N1c2ccccc2S(=O)c2ccc(Cl)cc21` (stereo not given) was 148 to 149 °C.
The figure for `CC(=O)NCCNc1ccc(NCCNC(C)=O)c2c1C(=O)c1c(O)ccc(O)c1C2=O` is 273 to 274 °C.
